Assay results as given in paper PMC3100853 (2010).

What was measured:
[1] = tested on: FB1 23 (DNA, aptamer) ATACCAGCTTATTCAATTGCGGATGCGTAAATGACGATAAACATAGATGGGGTATATCGCGATGCGACAGGGTGTAGATAGTAAGTGCAATCT; assay: magnetic bead binding, percent DNA eluted (fluorescence); conditions: 100 mM NaCl, 5 mM KCl, 2 mM MgCl2, 1 mM CaCl2; 20 mM Tris pH 7.6, room temperature; immobilised compound; 9-15 pmol DNA, 2 × 10^8 beads
[2] = tested on: FB1 32 (DNA, aptamer) ATACCAGCTTATTCAATTAATGTACGATGTGTGGGCAACATGAGTATGTCGTGTGATATCTAGATGAGGTAGCGGTGGAGATAGTAAGTGCAATCT; assay: as above; conditions: 100 mM NaCl, 5 mM KCl, 2 mM MgCl2, 1 mM CaCl2; 20 mM Tris pH 7.6, room temperature; immobilised compound; 9-15 pmol DNA, 2 × 10^8 beads
[3] = tested on: FB1 31 (DNA, aptamer) ATACCAGCTTATTCAATTCGGGGACGTGTATACCAGCTTATTCAATTCACAGTTATGTCCTATACCAGCTTATTCAATTAGATAGTAAGTGCAATCT; assay: as above; conditions: 100 mM NaCl, 5 mM KCl, 2 mM MgCl2, 1 mM CaCl2; 20 mM Tris pH 7.6, room temperature; immobilised compound; 9-15 pmol DNA, 2 × 10^8 beads
[4] = tested on: FB1 16 (DNA, aptamer) ATACCAGCTTATTCAATTCATCCAGTAACAAACACATAAGTAACGGCGATATGTCAAAGCGGTATCGGCTACAGATGAGATAGTAAGTGCAATCT; assay: as above; conditions: 100 mM NaCl, 5 mM KCl, 2 mM MgCl2, 1 mM CaCl2; 20 mM Tris pH 7.6, room temperature; immobilised compound; 9-15 pmol DNA, 2 × 10^8 beads
[5] = tested on: FB1 39 (DNA, aptamer) ATACCAGCTTATTCAATTAATCGCATTACCTTATACCAGCTTATTCAATTACGTCTGCACATACCAGCTTATTCAATTAGATAGTAAGTGCAATCT; assay: magnetic bead binding, fluorescence of eluted DNA; conditions: 100 mM NaCl, 5 mM KCl, 2 mM MgCl2, 1 mM CaCl2; 20 mM Tris pH 7.6, room temperature; immobilised compound; aptamer 1 nM to 1 μM
[6] = tested on: FB1 14 (DNA, aptamer) ATACCAGCTTATTCAATTCTATACGGAGTGGATATCGATCTGTAACGTGAGTGAGATAATGTGATGCATAGTCGTGGAGATAGTAAGTGCAATCT; assay: magnetic bead binding, percent DNA eluted (fluorescence); conditions: 100 mM NaCl, 5 mM KCl, 2 mM MgCl2, 1 mM CaCl2; 20 mM Tris pH 7.6, room temperature; immobilised compound; 9-15 pmol DNA, 2 × 10^8 beads

SMILES: CCCC[C@@H](C)[C@@H](OC(=O)C[C@@H](CC(=O)O)C(=O)O)[C@H](C[C@@H](C)C[C@H](O)CCCC[C@@H](O)C[C@H](O)[C@H](C)N)OC(=O)C[C@@H](CC(=O)O)C(=O)O
- binding [1]: yes
- binding [2]: yes
- binding [3]: yes
- binding [4]: yes
- KD [5]: 100 ± 30 nM
- binding [6]: yes
